Test results taken from publication PMC9834611 (Pharmacology Research & Perspectives, 2023).
Where two headings read alike, the source gives them in different places.

How the values were obtained:
[1] = VBL PK study in wild‐type and Mdr1a/b(−/−) mice, observed serum and tissue data; conditions: female, mouse, iv, 2 mg/kg; for half-life: in vivo, 2 mg/kg IV, Obs
Protocol: Mouse protocols were approved by the Institutional Animal Care and Use Committee at Colorado State University. Two strains of mice were used: FVB female mice and Mdr1a/b (−/−) (knock‐out, KO) female mice in a FVB background (Taconic Biosciences, Inc) for a total of 15 mice per strain with three mice per time point. […] Whole blood and tissues were harvested throughout a time range of 0.08 to 6 h. Whole blood was collected with heparinized needles and transferred to a microcentrifuge tube and was spun at 1200xg for 10 min at 4°C. The resulting serum and tissues were flash‐frozen in liquid nitrogen and stored at −80°C until ready for analysis.
Serum samples (200μl) were spiked with 50 ng (10 μl of 5 μg/ml solution) of vincristine as an internal standard. […] During vortex mixing, solid‐phase extraction cartridges were prepared by the addition of 400 μl methanol followed by 400 μl milli‐Q water. Loaded samples were then washed twice with 5% methanol. […] Samples were then evaporated to dryness using a Savant AES 1000 SpeedVac. Samples were then resuspended in 100 μl of diluent and transferred to autosampler vials with glass inserts for injection onto the HPLC system.
Positive ion electrospray ionization (ESI) mass spectra were obtained with a MDS Sciex 3200 Q‐TRAP triple quadrupole mass spectrometer (Applied Biosystems Inc) with a turbo ionspray source interfaced to a Shimadzu HPLC system and an HTC‐PAL autosampler (Leap Technologies). Samples were chromatographed with an Agilent ZORBAX Rx/SB‐C 8 (4.6 × 75 mm) column (Agilent Technologies) protected by a C 18 guard cartridge, 4.0 mm by 2.0 mm (Phenomenex). An LC gradient was employed with mobile phase A consisting of 10 mM ammonium acetate pH 4.0 and mobile phase B consisting of acetonitrile. Chromatographic resolution was obtained by holding mobile phase B steady at 50% from 0 to 0.01 min, increasing linearly from 50% to […] from 0.01 to 3.0 min, holding steady at 99% from 3.0 to 4.5 min, decreasing linearly from 99% to 50% from 4.5 to 5.0 min, followed by equilibration at 50% from 5.0 to 6.0 min. The LC flow rate was 0.75 ml/min and the sample injection volume was 10 μl. The analysis run time was 6.0 min.
Analyst v1.5.1 software (Applied Biosystems) was used for peak area integration.
Plasma and tissue concentrations were measured at time intervals between […] and 6 h post‐drug administration. The mouse PBPK model for Mdr1a/b (−/−) mice and wild‐type mice was developed using SimBiology, MATLAB with a focus on the following tissues: plasma, brain, bone marrow, liver, gut, and kidney. The primary drivers of vinca disposition including tubulin binding, ABCB1‐mediated transport, and elimination via metabolism, biliary clearance, and glomerular filtration created the foundation of the model. Metabolism values were either derived experimentally or sourced from literature, while tissue partitioning and Michaelis–Menten parameters for ABCB1 transport and biliary excretion were optimized using plasma and tissue PK data.

ABCB1 = test: ABCB1‐driven transport kinetics fit to wild‐type mouse brain tissue PK data
Text: The rate of change in the amount of drug in tissues with ABCB1 expression is as follows: (3) dAT/dt=QC×CA−CVT−FABCB1,T×Vmax,ABCB1×Cv/Km+Cv In which ABCB1‐mediated efflux of drug is characterized by Michaelis–Menten saturable kinetics, where FABCB1,T is the scaling factor for the relative expression of ABCB1 transport protein in relevant tissues, Vmax,ABCB1 is the maximum velocity of ABCB1 transport out of the tissue compartment, and Km is the associated Michaelis–Menten constant. Scaling factors, FABCB1,T , were acquired from Systems Pharmacology for ABCB1 relative tissue expression as previously reported.[36]
The transfer of drugs at the BBB is unique as the mass transfer out of the vascular space surrounding the brain tissue is hindered by a permeability barrier. […] Coupling the ABCB1 transport equations as expressed above with permeability‐limited modeling equations from Choi et al.,[23] the following equations are proposed where Equation ( 4 ) describes the amount of drug within the brain tissue and Equation ( 5 ) describes the amount of drug in the vascular space surrounding the tissue: (4) VCNS*dCCNS,T/dt=PSA×CA−CCNS,V−sfABCB1,CNS×VCNS×VMAXABCB1×CCNS,V/KMABCB1+CCNS,V (5) VBB*dCBB/dt=QCNS*CA−CV−PSA×CA−CV,CNA+sfCNS×VCNS×VMAXABCB1×CCNS,V/KMABCB1+CCNS,V where VCNS is the volume of the brain tissue, VBB is the volume consisting of brain blood, CCNS,T is the concentration of drug in the brain tissue, PSA is the permeability surface area product, sfABCB1,CNS is the relative ABCB1 expression in brain tissue, and CBB is the concentration of drug in the brain blood. VCNA and VBB were set to 97% and 3% of total brain volume, respectively.[37] […] The parameter optimization method was conducted as described previously with nonlinear least squares regression. […] The corresponding Vmax,ABCB1 value was optimized to in vivo canine PK data. […] Canine model parameter values were thus fit to the patients without concurrent treatment of omeprazole to minimize the influence of potential drug–drug interactions.

dog liver microsomes = conditions: dog and human models, fit of digitized data, cited from earlier work
human ABCB1 = system: human ABCB1; parameters: method as in PMID 17142983; conditions: dog and human models, cited from earlier work
serum proteins = conditions: cited from earlier work
[2] = VBL PK study in dogs (clinical trial, serum); conditions: dog, iv, 2.5 mg/m^2 IV bolus, observed; for AUC(0-t): 2.5 mg/m2, AUCt, dogs, 0 to 24 h; for half-life: 2.5 mg/m2, t1/2, dogs
[3] = concomitant prednisone/omeprazole/diphenhydramine (POD)

`CC[C@]1(O)C[C@@H]2CN(CCc3c([nH]c4ccccc34)[C@@](C(=O)OC)(c3cc4c(cc3OC)N(C)[C@H]3[C@@](O)(C(=O)OC)[C@H](OC(C)=O)[C@]5(CC)C=CCN6CC[C@]43[C@@H]65)C2)C1` [VBL, Vinblastine] showed an AUC ([1]; FVB (wild-type), brain) of 0.109 µM·h, an AUC ([1]; FVB (wild-type), gut) of 3.47 µM·h and a half-life ([1]; FVB (wild-type), t1/2, wild‐type mice, brain) of 3.94 h. It also gave a half-life ([1]; FVB (wild-type), t1/2, wild‐type mice, gut) of 1.27 h, a half-life ([1]; FVB (wild-type), t1/2, wild‐type mice, kidney) of 1.56 h and a half-life ([1]; FVB (wild-type), t1/2, wild‐type mice, liver) of 1.32 h. For the same compound, the half-life ([1]; FVB (wild-type), t1/2, wild‐type mice, serum) was 1.6 h, the AUC ([1]; FVB (wild-type), kidney) was 12.6 µM·h and the AUC ([1]; FVB (wild-type), liver) was 4.21 µM·h. It also gave an AUC ([1]; FVB (wild-type), serum) of 0.181 µM·h, an AUC ([1]; FVB, bone marrow) of 2.98 µM·h and an AUC ([1]; Mdr1a/b (−/−) knock-out in FVB background, bone marrow) of 2.71 µM·h. For the same compound, the half-life ([1]; Mdr1a/b (−/−) knock-out in FVB background, t1/2, Mdr1a/b (−/−) mice, bone marrow) was 5.83 h, the half-life ([1]; Mdr1a/b (−/−) knock-out in FVB background, t1/2, Mdr1a/b (−/−) mice, liver) was 1.8 h and the AUC ([1]; Mdr1a/b (−/−) knock-out in FVB background, liver) was 4.27 µM·h. For the same compound, the AUC ([1]; Mdr1a/b (−/−) knock-out, FVB background, brain) was 1.4 µM·h, the AUC ([1]; Mdr1a/b (−/−) knock-out, FVB background, gut) was 5.9 µM·h and the half-life ([1]; Mdr1a/b (−/−) knock-out, FVB background, t1/2, Mdr1a/b (−/−) mice, gut) was 3.86 h. For the same compound, the half-life ([1]; Mdr1a/b (−/−) knock-out, FVB background, t1/2, Mdr1a/b (−/−) mice, kidney) was 1.79 h, the half-life ([1]; Mdr1a/b (−/−) knock-out, FVB background, t1/2, Mdr1a/b (−/−) mice, serum) was 1.62 h and the AUC ([1]; Mdr1a/b (−/−) knock-out, FVB background, serum) was 0.215 µM·h. The “Vmbil (biliary transport Vmax)” value (ABCB1; WT mouse, set equivalent to ABCB1 value) was 928.8 nmol/L/h, the “Vmax, ABCB1‐driven transport” value (ABCB1; fit to wild‐type mouse brain tissue PK data) was 928.8 nM/h and the KmABCB1 (ABCB1; mouse, optimized parameter) was 6.41 nmol/L. The VmABCB1 (ABCB1; mouse, optimized parameter) was 928.8 nmol/L/h, the “Vmmet (metabolism Vmax)” value (dog liver microsomes; extrapolated using 55 mg protein/g liver) was 189.6 µmol/L/h and the Km (dog liver microsomes; read-out: Kmmet (metabolism Km)) was 9.53 µM. The KmABCB1 (human ABCB1; based on ATPase activity) was 5760 nmol/L, the Km (human ABCB1; set equivalent to ABCB1 value, read-out: Kmbil (biliary transport Km)) was 5.76 µM and the “bound to serum proteins” value (serum proteins; dog plasma) was no more than 75%. For the same compound, the “Protein binding (single value)” value (serum proteins; value used in dog model) was 75%, the “Protein binding (single value)” value (serum proteins; value used in human model) was 75% and the “Protein binding (single value)” value (serum proteins; value used in mouse model) was 75%. It also gave an AUC(0-t) ([2]; concomitant prednisolone only) of 0.186 µM·h, an AUC(0-t) [2, 3] of 0.0477 µM·h and a half-life ([2]; all patients regardless of concomitant treatment) of 18.6 h. It also gave a half-life ([2]; concomitant prednisolone only) of 15.7 h and a half-life [2, 3] of 5.15 h.
